Tests used:
[1] = system: SH-SY5Y cells; experiment: LDH release under H2O2; assay type: cell-based, human; conditions: H2O2 250 µM 24 h; compounds 24 h before; Figure 9
[2] = system: SH-SY5Y cells; experiment: Neuroprotection in the 6-OHD neurotoxicity-induced model, MTT; assay type: cell-based, human; conditions: 6-OHD 250 µM 48 h; compounds 24 h before
[3] = system: HepG2 cells; experiment: Cytotoxicity, MTT assay, HepG2; assay type: cell-based; conditions: Homo sapiens, HepG2; MTT, cytotoxicity; read-out: HepG2 IC50
Procedure: (§1) All compounds tested were dissolved and eventually further diluted in dimethylsulfoxide (DMSO). After overnight incubation, the cells were treated with different compound concentrations (5, 10, 20, 50, 100, 150, 200 µM) in a final volume of 200 µL with four replicates each. […] Cell proliferation or viability was measured using the 3-(4,5-dimethylthiazol-2-yl)-2,5-diphenyl tetrazolium bromide (MTT) assay. The MTT assay was optimized taking into account the number of cells plated per well, to work in the linear part of the cell density vs. MTT absorbance calibration curve, which allows achieving a maximum absorbance in the range of 0.8–1.0 in each well at the end of the experiment. In addition to that, the number of cells seeded for each experiment was optimized in agreement with the time scale of the experiment.
(§2) After cell treatment, 20 µL of MTT (5 mg/mL) was added to each well, and the plate was incubated at 37 °C in the dark for 2 h. Supernatants were removed, and the formazan crystals were solubilized in DMSO (200 µL/well), under 10 min shaking at room temperature. The reduction of MTT was quantified by absorbance at 570 nm in a Varioskan microplate reader (Thermo Fisher Scientific, Vantaa, Finland). Effects of the test compounds on cell viability were calculated using cells treated with a vehicle as a control. For IC50 and LD50 calculations, the data were subjected to linear regression analysis, and the regression lines were plotted for the best fit. The IC50 (inhibition of cell viability) concentrations were calculated using the respective dose–response curves.

[4] = system: SH-SY5Y cells; experiment: Neuroprotection against H2O2-induced oxidative stress, MTT; conditions: H2O2 250 µM 24 h; compounds 5-50 µM 24 h before; Figure 8
[5] = system: SH-SY5Y cells; experiment: Mitochondrial superoxide levels (MitoSOX); assay type: cell-based, human; conditions: H2O2 250 µM; compounds 24 h before
Procedure: Mitochondrial superoxide levels were measured with MitoSOX red (3,8-phenanthridinediamine, 5-(60-triphenylphosphoniumhexyl)-5,6-dihydro-6-phenyl) from Molecular Probes (Thermo Fisher Scientific, 29851Willow Creek Road, Eugene, OR, USA). After SH-SY5Y cell treatment in 96-well culture black clear bottom plates, the medium was removed and cells were washed with PBS and afterward, MitoSOX red (final concentration of 5 µM) in 200 µL of PBS was added and incubated for 20 min at 37 °C. After incubation, the cells were washed with warm PBS buffer, and fluorescence was measured at 510 nm excitation/640 nm emission wavelengths in a Varioskan microplate reader (Thermo Fisher Scientific, Vantaa, Finland).

[6] = system: SH-SY5Y cells; experiment: Cytotoxicity, MTT assay, SH-SY5Y; assay type: cell-based; conditions: Homo sapiens, MTT, cytotoxicity, read-out: SH-SY5Y IC50
Procedure: as §1, §2

[7] = Chemical reactivity with H2O2; assay type: physicochemical; conditions: H2O2 500 µM, 37 °C, 4 h; pH ≥ 7.4
Procedure: In our case, before running the protection experiments under oxidative stress conditions, we carried out experiments to assess the potential reactivity of compounds 9, 11, 13, and 18 at four different concentrations (5, 10, 20, and 40 µM) with H2O2 500 µM at 37 °C for 4 h in DMEM:F12 (without phenol red, FBS, and cells). Curcumin was used as a control compound.

[8] = Kinetic solubility by UV spectrometry; assay type: physicochemical; conditions: PBS 50 mM, aqueous buffer, kinetic from dmso stock
Procedure: A modified protocol was used from that described by Hoelke et al. for the determination of the kinetic solubility from DMSO compound solutions. A compound calibration curve (compound concentration vs UV absorption) was prepared for each compound with concentrations of 10, 20, 50, 100, and 200 µM. Each compound dilution was carried out by pipetting defined volumes of a 20 mM stock compound solution in DMSO into vials and adding PBS 50 mM to reach a final volume of 1 mL/well. The final amount of DMSO per well was 2%. For the lower compound concentrations, an additional volume of DMSO was added to each well to reach 2% DMSO. Then, 200 µL of each dilution was transferred to a new 96-well culture plate for the measurement of the UV-spectra. One well in each row was left without a compound as a blank, and its UV absorbance was used as an offset correction. The experiments were performed in duplicate.
In parallel, compound saturation solutions were reached and filtered from 20 mM compound stock in DMSO: 10 µL of a 20 mM stock solution was dispensed into 190 µL of PBS 10 mM. The solutions were mixed, shaken on a microplate shaker for two hours, and then 160 µL of each solution was filtered and transferred to a new well plate for UV absorption measurement.
Measurement of the UV-spectra was performed using a Varioskan microplate reader, and spectra were taken in the range of 270–600 nm. Spectral bandwidth was set to 5 nm, and the data pint interval was 10 nm. The experiments were carried out in triplicate.

[9] = system: SH-SY5Y cells; experiment: Lipid peroxidation (MDA, TBARS); assay type: cell-based, human; conditions: 250 µM H2O2 24 h; 10 and 20 µM 24 h before
Procedure: For MDA studies, 2 × 10^5 SH-SY5Y cells were seeded in 6-well culture plates. After 24 h, cells were treated with the test compound and incubated for another 24 h. After compound treatment, cells were exposed to H2O2 for 24 h. Then, the cells were washed twice with cold 50 mM PBS buffer, detached, and lysed with lysis buffer, and TBA was added to each sample tube and vortexed. The reaction mixture was incubated at 96 °C for 60 min. After incubation, samples were cooled and centrifuged 10 min at 10^4 rpm. Samples were dispensed in 96-well culture black clear bottom plates, and fluorescence was measured with a Varioskan microplate reader at λex = 540 nm and λem = 590 nm wavelengths. Protein concentration was measured by the Bradford protein assay. The levels of MDA were expressed as nmol/mg protein. Experiments were performed four times in triplicate.

[10] = system: SH-SY5Y cells; experiment: Neuroprotection in the MPP+ neurotoxicity-induced model, MTT; assay type: cell-based, human; conditions: MPP+ 700 µM 48 h; compounds 24 h before
[11] = previously reported; cited from earlier work
[12] = system: Caspase-3 activity in SH-SY5Y cells; experiment: Caspase-3 activity; assay type: cell-based, human; conditions: H2O2 500 µM 4 h; compound 24 h before
Procedure: Caspase-3 activity was measured using the Abcam fluorimetric kit (ab39383) according to the manufacturer’s instructions. Cells are washed with ice-cold PBS and lysed with lysis buffer. After compound and stressor treatments, SH-SY5Y cells were scraped off from p6 plates and collected in a 1.5 mL Eppendorf vial. The cell suspension was then centrifuged at 9000× g for 10 min at 4 °C. The supernatant was collected and stored at −80 °C for 24 h. Caspase 3 activity was measured as the ability of the cell extract to cleave the […] fluorochrome. The sample’s protein concentration was determined by the Bradford method. The reaction assay was performed by the addition of 50 μL of the cell lysate into the wells of a black 96-well culture plate followed by the addition of 50 μL of 2× reaction buffer containing DTT (10 mM) and caspase-3 substrate DEVD-AFC (final concentration 50 μM). Reagents were mixed by shaking the plate for 2 min at 300 rpm and then incubated at 37 °C for 2 h. Caspase-3 activity was measured as fluorescence intensity in a Varioskan microplate reader at λex = 400 nm and λem = 505 nm wavelengths. Relative fluorescence units (RFU)/mg of protein were calculated, and the fold increase in Caspase-3 activity was compared with that of the control.

[13] = system: diffSH-SY5Y cells; experiment: Neuroprotection in differentiated SH-SY5Y cells, MTT; assay type: cell-based, human; conditions: H2O2 500 µM 24 h; 0, 2, 5, 10, 20, and 40 µM 24 h before

COc1cc(/C=C/C(=O)CC(=O)/C=C/c2ccc(O)c(OC)c2)ccc1O [Curcumin, reference compound]
LDH leakage [1]: reduced LDH leakage to some degree | Neuroprotection, cell viability (MTT), 6-OHD model [2]: did not show any protection | IC50 [3]: 110 ± 9.8 µM | Neuroprotection effect, cell viability (MTT) [4]: only showed slight protection at concentrations 5 and 10 µM | Reduction in mitochondrial superoxide levels [5]: only a clear reduction at 20 µM | IC50 [6]: 48.8 ± 5.1 µM | concentration decrease in the presence of H2O2 [7]: 30% | solubility [8]: < 50 µM | Effect on MDA levels [9]: reduction of MDA levels although without statistical significance | Neuroprotection, cell viability (MTT), MPP+ model [10]: did not yield any protection | water solubility [11]: < 0.6 µg/mL | Caspase-3 activity reduction [12]: did not show any reduction in caspase-3 activity | Neuroprotection, diffSH-SY5Y cell viability (MTT) [13]: more irregular activity profile with some toxicity at 40 µM

From publication PMC8533176, “1,5-Benzodiazepin-2(3H)-ones: In Vitro Evaluation as Antiparkinsonian Agents” (Antioxidants, 2021)
